Results from ChEMBL document CHEMBL5584334, “Discovery of a Covalent Inhibitor of Pro-Caspase-1 Zymogen Blocking NLRP3 Inflammasome Activation and Pyroptosis” (J Med Chem, 2024).
The source made the active and inactive calls. The rule behind the calls is not given here.

Legend:
Caspase-1 (Homo sapiens) [1] = target: T1, Caspase-1 (Homo sapiens) (UniProt P29466); experiment: Inhibition of recombinant human caspase-1 expressed in Escherichia coli BL21 cells assessed as remaining activity at 10 uM using […] as substrate incubated for 30 mins relative to control
T1 sequence (whole entry): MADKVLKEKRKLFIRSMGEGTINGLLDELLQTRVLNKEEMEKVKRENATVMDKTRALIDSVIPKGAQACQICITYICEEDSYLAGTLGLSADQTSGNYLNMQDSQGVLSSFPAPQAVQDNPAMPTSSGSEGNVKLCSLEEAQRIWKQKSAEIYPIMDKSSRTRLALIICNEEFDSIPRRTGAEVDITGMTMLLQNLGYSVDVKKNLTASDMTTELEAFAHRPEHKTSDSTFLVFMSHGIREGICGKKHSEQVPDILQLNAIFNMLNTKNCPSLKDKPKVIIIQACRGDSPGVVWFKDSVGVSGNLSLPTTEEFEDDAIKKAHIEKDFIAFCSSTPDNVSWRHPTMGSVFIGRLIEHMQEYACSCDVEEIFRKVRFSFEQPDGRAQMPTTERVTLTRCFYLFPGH

Caspase-1 (Homo sapiens) [2] = target: T1, Caspase-1 (Homo sapiens); experiment: Inhibition of recombinant human caspase-1 expressed in Escherichia coli BL21 cells assessed as remaining activity at 100 uM using […] as substrate incubated for 30 mins relative to control
Caspase-1 = target: T2, Caspase-1 (Homo sapiens, UniProt P29466); experiment: Inhibition of recombinant human caspase-1 expressed in Escherichia coli BL21 cells using […] as substrate incubated for 30 mins
T2 sequence (P29466 whole entry): T1 sequence (whole entry)

Caspase-1 (Homo sapiens) [3] = target: T1, Caspase-1 (Homo sapiens); experiment: Inhibition of recombinant human caspase-1 expressed in Escherichia coli BL21 cells at 5 to 50 uM using […] as substrate incubated for 30 mins; settings: dose 5-50 µM
[4] = target: NACHT, LRR and PYD domains-containing protein 3 (Mus musculus) (UniProt Q8R4B8); experiment: Inhibition of NLRP3 inflammasome activation activation in LPS/nigericin stimulated mouse J774.A1 cells assessed as reduction in IL-1beta production pretreated with LPS for 3 hrs prior to compound addition for 30 mins followed by nigericin addition and measured after 45 mins by ELISA; assay type: cell-based; settings: dose 0.001-2000 nM, time 75.0 min
Caspase-1 (Homo sapiens) [5] = target: T1, Caspase-1 (Homo sapiens); experiment: Inhibition of caspase-1 activity (unknown origin); settings: dose 50-300 µM

Chain of NACHT, LRR and PYD domains-containing protein 3 (Mus musculus) (Q8R4B8 whole entry, the tested form may be a part): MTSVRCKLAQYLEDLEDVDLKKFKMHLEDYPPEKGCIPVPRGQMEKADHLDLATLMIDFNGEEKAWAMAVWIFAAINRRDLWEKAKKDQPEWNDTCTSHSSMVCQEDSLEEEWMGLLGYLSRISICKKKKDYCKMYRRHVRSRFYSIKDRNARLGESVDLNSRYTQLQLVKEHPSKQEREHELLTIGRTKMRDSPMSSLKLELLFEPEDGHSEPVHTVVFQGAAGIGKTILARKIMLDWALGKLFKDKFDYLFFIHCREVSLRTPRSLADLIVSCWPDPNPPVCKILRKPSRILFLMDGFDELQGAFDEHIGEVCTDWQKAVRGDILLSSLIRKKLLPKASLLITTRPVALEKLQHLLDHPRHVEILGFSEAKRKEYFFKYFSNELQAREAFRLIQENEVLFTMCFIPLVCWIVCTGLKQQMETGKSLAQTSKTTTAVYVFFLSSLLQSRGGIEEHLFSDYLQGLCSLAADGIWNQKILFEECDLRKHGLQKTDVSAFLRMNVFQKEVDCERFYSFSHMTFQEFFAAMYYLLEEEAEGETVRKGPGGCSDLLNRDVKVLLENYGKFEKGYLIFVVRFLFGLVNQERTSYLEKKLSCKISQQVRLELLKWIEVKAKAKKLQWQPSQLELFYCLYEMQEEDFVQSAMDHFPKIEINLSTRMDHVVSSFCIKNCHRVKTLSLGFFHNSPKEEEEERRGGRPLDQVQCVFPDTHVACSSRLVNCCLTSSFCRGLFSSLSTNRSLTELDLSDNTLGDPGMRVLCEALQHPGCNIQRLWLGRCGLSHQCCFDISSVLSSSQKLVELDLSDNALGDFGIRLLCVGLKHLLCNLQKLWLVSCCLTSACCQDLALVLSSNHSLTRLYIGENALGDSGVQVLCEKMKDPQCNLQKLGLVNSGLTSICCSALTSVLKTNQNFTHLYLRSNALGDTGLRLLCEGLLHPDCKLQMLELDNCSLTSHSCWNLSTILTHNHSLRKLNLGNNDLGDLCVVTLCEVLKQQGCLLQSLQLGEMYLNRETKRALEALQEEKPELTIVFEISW

Row | inhibition (active/not active) (Caspase-1 (Homo sapiens) [3]) | inhibition (Caspase-1 (Homo sapiens) [5]) | SMILES | Activity (Caspase-1 (Homo sapiens) [1]) [%] | Activity (Caspase-1 (Homo sapiens) [2]) [%] | IC50 (Caspase-1) [µM] | inhibition [4]
1 |  |  | CC1=C[C@@]2(C(=O)N(C(=O)OCc3ccccc3)c3ccccc32)[C@H](C(=O)OC(C)(C)C)C[C@@]1(C)N=C=S | 103 | 91 | > 100 | 
2 |  |  | CC(C)(C)OC(=O)[C@@H]1C[C@@H](N=C=S)C=C[C@@]12C(=O)N(C(=O)OCc1ccccc1)c1ccc(F)cc12 | 81 | 17 | 80.7 | 
3 |  |  | O=C(OCc1ccccc1)[C@@H]1C[C@@H](N=C=S)C=C[C@@]12C(=O)N(C(=O)OCc1ccccc1)c1ccccc12 | 104 | 42 | 85.5 | 
4 |  |  | CC(C)(C)OC(=O)[C@@H]1C[C@@H](N=C=S)C=C[C@@]12C(=O)N(C(=O)OCc1ccccc1)c1c(F)cccc12 | 85 | 13 | 79.1 | 
5 |  |  | COC(=O)N1C(=O)[C@@]2(C=C[C@H](N=C=S)C[C@H]2C(=O)OC(C)(C)C)c2ccccc21 | 68 | 34 | 58.2 | 
6 |  | inactive | CC(C)(C)OC(=O)[C@@H]1CC=C[C@@H](SC#N)[C@@]12C(=O)Nc1ccc(NC(=O)CCCC[C@@H]3SC[C@@H]4NC(=O)N[C@@H]43)cc12 |  |  |  | 
7 | inactive |  | COc1ccc2c(c1)[C@@]1(C(=O)N2C(=O)OCc2ccccc2)[C@@H](SC#N)C=CC[C@H]1C(=O)OC(C)(C)C |  |  |  | 
8 |  |  | CC(C)(C)OC(=O)[C@@H]1C[C@@H](NC(=S)NN)C=C[C@@]12C(=O)N(C(=O)OCc1ccccc1)c1ccccc12 | 107 | 84 | > 100 | 
9 |  |  | CC(C)OC(=O)[C@@H]1C[C@@H](N=C=S)C=C[C@@]12C(=O)N(C(=O)OCc1ccccc1)c1ccccc12 | 104 | 19 | 72.9 | 
10 |  |  | CC(C)(C)OC(=O)[C@@H]1C[C@@H](N=C=S)C=C[C@@]12C(=O)N(C(=O)OCc1ccccc1)c1ccc(Cl)cc12 | 77 | 24 | 84.8 | 
11 |  |  | COC(=O)[C@@H]1C[C@@H](N=C=S)C=C[C@@]12C(=O)N(C(=O)OCc1ccccc1)c1ccccc12 | 78 | 9 | 29.4 | 
12 | Active |  | COc1ccc2c(c1)[C@]1(C=C[C@@H](N=C=S)C[C@H]1C(=O)OC(C)(C)C)C(=O)N2C(=O)OCc1ccccc1 |  |  |  | 
13 |  |  | CC(C)(C)OC(=O)[C@@H]1C[C@@H](NC(=S)Nc2ccccc2)C=C[C@@]12C(=O)N(C(=O)OCc1ccccc1)c1ccccc12 | 112 | 84 | > 100 | 
14 |  |  | CC(C)(C)OC(=O)[C@@H]1C[C@@H](N=C=S)C=C[C@@]12C(=O)N(C(=O)OCc1ccccc1)c1ccc(I)cc12 | 88 | 61 | > 100 | 

Row | SMILES | inhibition (active/not active) (Caspase-1 (Homo sapiens) [3]) | inhibition (Caspase-1 (Homo sapiens) [5]) | Activity (Caspase-1 (Homo sapiens) [1]) [%] | Activity (Caspase-1 (Homo sapiens) [2]) [%] | IC50 (Caspase-1) [µM] | inhibition [4]
15 | S=C=NCCc1ccccc1 | inactive |  |  |  |  | Dose-Dependent Effect
